This note sets out measurements from article PMC11274521 (Cells, 2024).

Ends that are not written are not given here. Peptide text beside a SMILES is read from it. * marks the point of attachment. Biotin = O=C1N[C@H]2[C@H](CS[C@H]2CCCCC(=O)*)N1; Ahx = NCCCCCC(=O)O

One may read the solubility as how much of the substance goes into solution per volume. Higher therefore signals a readily soluble substance.

Data set [1] in a line: physchem. Particulars: aqueous buffer.
In data set [2] the test system is albumin (HSA, BSA, FBS). Briefly: Biotin pulldown of albumin. The class given is binding, human, bovine. The following applies: 1 mM biotinylated peptide, 0.03 mM HSA, BSA or FBS, 2 h 4 °C, streptavidin resin. The protocol: For immunoprecipitation (IP), 300 µg of lysate was mixed with 5 µg of human anti-PD-1 (#AF1086, R&D) or mouse anti-PD-L1 (#PA5-20343, Invitrogen-Thermo Fisher Scientific) at 4 °C for 2 h followed by 30 min incubation with 20 µL of Pierce™ Protein A/G Magnetic Beads (ThermoFisher Scientific; catalog #88802) at room temperature followed by Western blot to detect the interacted proteins. In the biotin pulldown procedure, 1 mM biotinylated peptides were incubated with 0.03 mM of albumin (BSA, HSA, the equivalent amount FBS) for 2 h at 4 °C followed by incubating with 50 µL Streptavidin resin (Genescript, Piscataway, NJ, USA) for 1 hr at room temperature, followed by SDS-PAGE to detect the bound albumin.

For data set [3] the following is noted: mouse, in vivo.
Data set [4] has as its system cells.
For data set [5], the target named is T1, bovine serum albumin (bovine, UniProt P02769 25-607).
T1 construct: bovine serum albumin, used as BSA and as the albumin in an equivalent amount of FBS; also called BSA; albumin of fetal bovine serum (FBS); source: also as the albumin in fetal bovine serum (FBS)
T1 sequence (P02769 25-607): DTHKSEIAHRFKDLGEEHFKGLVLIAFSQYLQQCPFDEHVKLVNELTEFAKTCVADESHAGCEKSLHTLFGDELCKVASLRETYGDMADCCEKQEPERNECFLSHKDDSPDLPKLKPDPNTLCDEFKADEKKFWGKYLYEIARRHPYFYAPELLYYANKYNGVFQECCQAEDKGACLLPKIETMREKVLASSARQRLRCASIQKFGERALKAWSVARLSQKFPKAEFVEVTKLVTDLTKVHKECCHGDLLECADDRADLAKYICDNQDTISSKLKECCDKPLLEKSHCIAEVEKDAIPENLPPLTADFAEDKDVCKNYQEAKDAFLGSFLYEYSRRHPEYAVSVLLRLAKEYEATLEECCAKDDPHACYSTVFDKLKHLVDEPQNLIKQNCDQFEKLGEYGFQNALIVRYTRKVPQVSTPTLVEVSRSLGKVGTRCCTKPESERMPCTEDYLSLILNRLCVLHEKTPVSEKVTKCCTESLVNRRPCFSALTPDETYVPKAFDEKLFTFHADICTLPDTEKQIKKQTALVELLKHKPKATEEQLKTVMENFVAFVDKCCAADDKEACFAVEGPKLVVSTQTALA
The data set is described as follows: pull-down; 1 mM biotinylated peptide with 0.03 mM albumin (HSA or BSA) for 2 h at 4 °C, then Streptavidin resin for 1 h at room temperature; bound albumin detected by SDS-PAGE. The following applies: both partners purified.

Data set [6] addresses T2, human serum albumin (human, UniProt P02768 25-609).
T2 construct: human serum albumin (HSA); also called HSA
The description is as above. The following applies: both partners purified.

In turn, REEKLFNVTSTLRINT-NH2 [L7] displayed a solubility in data set [1] of under 10000 µg/mL. For `CC[C@H](C)[C@H](NC(=O)[C@H](CCCNC(=N)N)NC(=O)[C@H](CC(C)C)NC(=O)[C@H](CC(N)=O)NC(=O)[C@H](CO)NC(=O)[C@@H](NC(=O)[C@@H](NC(=O)[C@H](CC(N)=O)NC(=O)[C@H](Cc1ccccc1)NC(=O)[C@H](CC(C)C)NC(=O)[C@H](CCCCN)NC(=O)[C@H](CCC(=O)O)NC(=O)[C@H](CCC(=O)O)NC(=O)[C@H](CCCNC(=N)N)NC(=O)CCCCCNC(=O)[C@H](CCC(=O)O)NC(=O)[C@H](Cc1ccc(O)cc1)NC(=O)[C@H](CCC(=O)O)NC(=O)[C@H](CCCCN)NC(=O)[C@H](CCC(=O)O)NC(=O)[C@H](Cc1ccc(O)cc1)NC(=O)[C@H](CCC(=O)O)NC(=O)CCCCCNC(=O)CCCC[C@@H]1SC[C@@H]2NC(=O)N[C@@H]21)C(C)C)[C@@H](C)O)C(=O)N[C@@H](CC(N)=O)C(=O)N[C@H](C(N)=O)[C@@H](C)O` [Biotin-EYEKEYE-L7N], in data set [2], the “Binding to albumin (pulldown, SDS-PAGE)” value was “no binding”. The same measure, in the same setting: the result for `CC[C@H](C)[C@H](NC(=O)[C@H](CCCNC(=N)N)NC(=O)[C@H](CC(C)C)NC(=O)[C@H](CC(N)=O)NC(=O)[C@H](CO)NC(=O)[C@@H](NC(=O)[C@@H](NC(=O)[C@H](CC(N)=O)NC(=O)[C@H](Cc1ccccc1)NC(=O)[C@H](CC(C)C)NC(=O)[C@H](CCCCN)NC(=O)[C@H](CCC(=O)O)NC(=O)[C@H](CCC(=O)O)NC(=O)[C@H](CCCNC(=N)N)NC(=O)CCCCCNC(=O)CCCC[C@@H]1SC[C@@H]2NC(=O)N[C@@H]21)C(C)C)[C@@H](C)O)C(=O)N[C@@H](CC(N)=O)C(=O)N[C@H](C(N)=O)[C@@H](C)O` [Biotin-L7N] ({Biotin-Ahx}-REEKLFNVTSNLRINT-NH2) reads “no binding”. In the case of REEKLFNVTSNLRINT-NH2 [L7N], the “Immune reactions of mice” value in data set [3] is on record as “adverse immune reactions”. Also, the Toxicity to cells entry in data set [4] was “no significant toxicity”.

B1: Biotin-PA-scramble (peptide)
peptide: EYEKEYETKLREIFVNLRTNSEN
modifications: biotin-ahx at the N-terminus; palmitic acid on the Lys side chain of EYEKEYE; ahx (6-aminohexanoic acid) between EYEKEYE and the peptide
notes: peptide tag that carries palmitic acid on its Lys; also called biotin–PA–scrambled peptide; PA-coupled scramble peptide; source: synthetic peptide (Fmoc chemistry); not shown: biotin, N-terminal, kept
With B1, the binding result in data set [5] and in data set [6] was “binds” in each case.
